Key:
[1] = tested on: HCT116 human colon cancer cells; experiment: MTT assay, antiproliferative activity; format: cell-based; details: HCT-116, 72 hours
Description: (§1) Table 6C provides data on inhibition of HDAC1 enzyme, on antiproliferative activities (HCT116 human colon cancer cells) of the compounds using 3-[4,5-dimethylthiazol-2-yl-2,5-diphenyltetrazolium]bromide (MTT) assay, as well as induction of p21^WAF1/Cip1 tumor suppressor gene.
Compounds at various concentrations were added to human colon cancer HCT116 cells plated in 96-well plates. Cells were incubated for 72 hours at 37° C. in 5% CO2 incubator. MTT (3-[4,5-dimethylthiazol-2-yl]-2,5 diphenyl tetrazolium bromide, Sigma) was added at a final concentration of 0.5 mg/ml and incubated with the cells for 4 hours before an equal volume of solubilization buffer (50% N,N-dimethylformamide, 20% SDS, pH 4.7) was added onto cultured cells. After overnight incubation, solubilized dye was quantified by colorimetric reading at […] using a reference at 630 nM. OD values were converted to cell numbers according to a standard growth curve of the relevant cell line. The concentration which reduces cell numbers to 50% of those of DMSO-treated cells is determined as MTT IC50,

[2] = target: human HDAC-1 (Homo sapiens, UniProt Q13547); experiment: Inhibition of histone deacetylase enzymatic (HDAC-1) activity; format: biochemical; details: Table 6C
Description: The following protocol was used to assay the compounds of the invention.
The mixture was pre-incubated for 5 minutes at room temperature. The reaction was started by bringing the temperature to 37° C. and adding 16 μl substrate.

[3] = tested on: p21^WAF1/Cip1 tumor suppressor gene; experiment: p21WAF1/Cip1 assay (p21 promoter-driven luciferase reporter); format: cell-based, human; details: for P21 (HCT116) μM, effective concentration (EC) for induction of p21: HCT116 cells with p21 promoter-driven luciferase, 16 hours, compared with MS-275
Description: as §1
HCT116 cells were stably transfected with reporter plasmids encoding the p21 promoter-driven luciferase. Cells were treated with indicated concentration of HDAC inhibitors for 16 hours before cells were harvested and luciferase activity analyzed. The effective concentration (EC) of MS-275 was designated as 1 uM. The ability of HDAC inhibitor was compared with that of MS-275 (T. Suzuki, et. al J. Med. Chem., 1999, 3001-3003).

[4] = tested on: A549 human lung cancer; experiment: Antineoplastic effects on human tumor xenografts in vivo, A549; details: A549 xenograft in mice, daily injection
Description: (§2) Eight to ten week old female BCDI mice (Taconic Labs, Great Barrington, N.Y.) were injected subcutaneously in the flank area with 2×10^6 preconditioned HCTI 16 human colorectal carcinoma cells, A549 human lung cancer, SW48 human colorectal cancer, A431 vulval caracinoma and colo205 human colorectal cancer. Preconditioning of these cells was done by a minimum of three consecutive tumor transplantations in the same strain of nude mice. Subsequently, tumor fragments of approximately 30 mgs were excised and implanted subcutaneously in mice, in the left flank area, under Forene anesthesia (Abbott Labs, Geneva, Switzerland). When the tumors reached a mean volume of 100 mm^3, the mice were treated intravenously, subcutaneously, or intraperitoneally by daily injection, with a solution of the histone deacetylase inhibitor in an appropriate vehicle, such as PBS, DMSO/water, or Tween 80/water, at a starting dose of 10 mg/kg. The optimal dose of the HDAC inhibitor was established by dose response experiments according to standard protocols. Tumor volume was calculated every second day post infusion according to standard methods (e.g., Meyer et al., Int. J. Cancer 43: 851-856 (1989)).

[5] = tested on: A431 vulval carcinoma; experiment: Antineoplastic effects on human tumor xenografts in vivo, A431; details: A431 xenograft in mice, daily injection
Description: as §2

[6] = tested on: HCT116 human colorectal carcinoma cells; experiment: Antineoplastic effects on human tumor xenografts in vivo, HCT116; details: hct116 xenograft in mice, daily injection
Description: as §2

Sequence of human HDAC-1 (Q13547 whole entry): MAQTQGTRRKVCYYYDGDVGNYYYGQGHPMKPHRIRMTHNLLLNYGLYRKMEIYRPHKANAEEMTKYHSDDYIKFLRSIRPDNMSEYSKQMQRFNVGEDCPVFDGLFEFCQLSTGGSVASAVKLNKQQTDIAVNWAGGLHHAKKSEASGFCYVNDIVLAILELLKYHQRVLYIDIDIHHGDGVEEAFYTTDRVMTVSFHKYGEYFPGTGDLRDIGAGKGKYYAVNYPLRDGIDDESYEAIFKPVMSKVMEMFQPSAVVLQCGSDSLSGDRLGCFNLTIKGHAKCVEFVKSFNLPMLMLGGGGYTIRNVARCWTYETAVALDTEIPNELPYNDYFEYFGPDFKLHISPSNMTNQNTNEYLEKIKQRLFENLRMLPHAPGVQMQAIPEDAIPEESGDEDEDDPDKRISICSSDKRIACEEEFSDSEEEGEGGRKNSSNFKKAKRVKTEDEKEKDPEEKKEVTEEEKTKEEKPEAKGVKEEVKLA

SMILES | IC50 [1] [nM] | IC50 [2] [nM] | P21 (HCT116) μM, effective concentration (EC) for induction of p21 [3] | antineoplastic effects [4] | antineoplastic effects [5] | antineoplastic effects [6] | effective concentration (EC) for p21 induction ([3]; reference compound, value designated) [µM]
Nc1ccc(-c2cccs2)cc1NC(=O)c1ccsc1 [258nn, N-(2-amino-5-(thiophen-2-yl)phenyl)thiophene-3-carboxamide] | 1000 to 20000 | < 1000 | b (1≦b≦20) | – | – | – | –
Cc1cc(C)nc(N(C)c2ccc(C(=O)Nc3cc(-c4cccs4)ccc3N)cc2)n1 [258hh, N-(2-amino-5-(thiophen-2-yl)phenyl)-4-((4,6-dimethylpyrimidin-2-yl)(methyl)amino)benzamide] | < 1000 | < 1000 | b (1≦b≦20) | – | – | – | –
Nc1ccc(-c2cccs2)cc1NC(=O)c1ccc2ncccc2c1 [258cc, N-(2-amino-5-(thiophen-2-yl)phenyl)quinoline-6-carboxamide] | < 1000 | < 1000 | b (1≦b≦20) | – | – | – | –
CC(=O)Nc1ccc(C(=O)Nc2cc(-c3cccs3)ccc2N)cc1 [258aa, 4-acetamido-N-(2-amino-5-(thiophen-2-yl)phenyl)benzamide] | < 1000 | – | b (1≦b≦20) | antineoplastic effects | antineoplastic effects | antineoplastic effects | –
CN(C)CCOC(=O)Nc1ccc(C(=O)Nc2cc(-c3cccs3)ccc2N)cc1 [164cc, 2-(dimethylamino)ethyl 4-((2-amino-5-(thiophen-2-yl)phenyl)carbamoyl)phenylcarbamate] | < 1000 | < 1000 | b (1≦b≦20) | – | – | – | –
Nc1ccc(-c2cccs2)cc1NC(=O)c1ccc(O)cc1 [258pp, N-(2-amino-5-(thiophen-2-yl)phenyl)-4-hydroxybenzamide] | < 1000 | < 1000 | b (1≦b≦20) | – | – | – | –
COc1ccc(C(=O)Nc2cc(-c3cccs3)ccc2N)cc1 [258qq, N-(2-amino-5-(thiophen-2-yl)phenyl)-4-methoxybenzamide] | < 1000 | < 1000 | b (1≦b≦20) | – | – | – | –
Nc1ccccc1NC(=O)c1ccc(CNC(=O)OCc2cccnc2)cc1 [MS-275, reference compound] | – | – | – | – | – | – | 1
COc1cc(OC)c2cc(C(=O)Nc3cc(-c4cccs4)ccc3N)oc2c1 [Compound 245e] | < 1000 | < 1000 | – | – | – | – | –
COc1cccc(C(=O)Nc2cc(-c3cccs3)ccc2N)c1 [Compound 181] | < 1000 | < 1000 | – | – | – | – | –
Nc1ccc(-c2cccs2)cc1NC(=O)c1ccc(Cn2c(=O)[nH]c3ccccc3c2=O)cc1 [compound 349] | < 1000 | < 1000 | b (1≦b≦20) | – | – | – | –
Nc1ccc(-c2cccs2)cc1NC(=O)c1ccc(OC(=O)c2ccc(O)cc2)cc1 [258mm, 4-((2-amino-5-(thiophen-2-yl)phenyl)carbamoyl)phenyl 4-hydroxybenzoate] | < 1000 | < 1000 | b (1≦b≦20) | – | – | – | –
Cc1nc2ccc(C(=O)Nc3cc(-c4cccs4)ccc3N)cc2o1 [286aa, N-(2-amino-5-(thiophen-2-yl)phenyl)-2-methylbenzo[d]oxazole-6-carboxamide] | < 1000 | < 1000 | b (1≦b≦20) | – | – | – | –
Cn1nnc2cc(C(=O)Nc3cc(-c4cccs4)ccc3N)ccc21 [Compound 286] | 1000 to 20000 | < 1000 | – | – | – | – | –
CC(=O)Oc1ccc(C(=O)Nc2cc(-c3cccs3)ccc2N)cc1 [Compound 184] | < 1000 | < 1000 | – | – | – | – | –
Nc1ccc(-c2cccs2)cc1NC(=O)c1ccc2c(c1)OCCO2 [Compound 256b] | < 1000 | < 1000 | – | – | – | – | –
Nc1ccc(-c2cccs2)cc1NC(=O)c1ccc(SC(F)(F)F)cc1 [Compound 143c] | 1000 to 20000 | < 1000 | – | – | – | – | –
Cn1cnc2cc(C(=O)Nc3cc(-c4cccs4)ccc3N)ccc21 [Compound 283] | < 1000 | < 1000 | – | – | – | – | –
Nc1ccc(-c2cccs2)cc1NC(=O)c1ccc2c(c1)OCO2 [Compound 256a] | < 1000 | < 1000 | – | – | – | – | –
CN1CCN(C(=O)Nc2ccc(C(=O)Nc3cc(-c4cccs4)ccc3N)cc2)CC1 [Compound 164] | < 1000 | < 1000 | – | – | – | – | –

From US7868205B2, “Inhibitors of histone deacetylase” (MethylGene Inc., priority 2003, dated 2011)
